For one compound, Maximum azithromycin conc. results are on record in US20180042953A1, “ANTIBACTERIAL INJECTABLE PHARMACEUTICAL COMPOSITION” (OBSHCHESTVO S OGRANICHENNOY OTVETSTVENNOSTYU "VIK - …, priority 2012, published 2018).

A short description of the series: Azithromycin solubility in organic solvents. The class given is physicochemical.

SMILES strings stand for the structures.

Regarding `CC[C@H]1OC(=O)[C@H](C)[C@@H](O[C@H]2C[C@@](C)(OC)[C@@H](O)[C@H](C)O2)[C@H](C)[C@@H](O[C@@H]2O[C@H](C)C[C@H](N(C)C)[C@H]2O)[C@](C)(O)C[C@@H](C)CN(C)[C@H](C)[C@@H](O)[C@]1(C)O` [Azithromycin, (2R,3S,4R,5R,8R,10R,11R,12S,13S,14R)-13-[(2,6-dioxy-3-C-methyl-3-O-methyl-a-L-ribohexopyranozyl)oxy]-2-ethyl-3,4, 10-trihydroxy-3,5,6,8,10,12,14-heptamethyl-11-[[3,4,6-trideoxy-3-(dimethylamino)-b-D-xylo-hexapyranozyl]oxy]-1-ox-6-azacyclopentadecane-15-one], the Maximum azithromycin conc. is, setting by setting: (solvent 2-Pyrrolidone) 28.9%; (solvent 3,3-dimethyl-2-pyrrolidone) 26.4%; (solvent Dimethylacetamide) 32.1%; (solvent Dimethylsulfoxide) 26.4%; (solvent N-ethoxy-2-pyrrolidone) 23.3%; (solvent N-ethyl-2-pyrrolidone) 25.8%. The Maximum azithromycin conc. by setting is: (solvent N-methyl-2-pyrrolidone) 31.2%; (solvent N-octyl-2-pyrrolidone) 21.5%; (solvent Propylene glycol) 13.4%; (solvent Transcutol) 10.2%.
